# Publication PMC5218480 (PLoS ONE, 2017)
# Test system: MV-4-11 cells
# Experiment: Gene expression microarray analysis (Affymetrix PrimeView) and GSEA
# Type: cell-based, human
# Design: RFU PODN (11730768_x_at) / Fold change /veh PODN (11730768_x_at) / RFU LINC00158 (11744669_a_at) / Fold change /veh LINC00158 (11744669_a_at) / RFU DUSP10 (11751237_a_at) / Fold change /veh DUSP10 (11751237_a_at) / RFU ID3 (11757404_x_at) / Fold change /veh ID3 (11757404_x_at) / RFU PLEKHG5 (11737974_s_at) / Fold change /veh PLEKHG5 (11737974_s_at) / RFU LRRC4B (11730491_at) / Fold change /veh LRRC4B (11730491_at) / RFU GIMAP4 (11747438_a_at) / Fold change /veh GIMAP4 (11747438_a_at) / RFU KRT8 (11758183_x_at) / Fold change /veh KRT8 (11758183_x_at) / RFU CNN1 (11734310_a_at) / Fold change /veh CNN1 (11734310_a_at) / RFU VPS37D (11726825_at) / Fold change /veh VPS37D (11726825_at) / RFU C10orf10 (11716522_x_at) / Fold change /veh C10orf10 (11716522_x_at) / RFU KIR2DL2 /// KIR2DL4 /// KIR2DL5A /// KIR2DL5B /// KIR2DS1 /// KIR2DS2 /// KIR2DS3 /// KIR2DS4 /// KIR3DL3 /// KIR3DL3 /// KIR3DS1 (11738374_at) / Fold change /veh KIR2DL2 /// KIR2DL4 /// KIR2DL5A /// KIR2DL5B /// KIR2DS1 /// KIR2DS2 /// KIR2DS3 /// KIR2DS4 /// KIR3DL3 /// KIR3DL3 /// KIR3DS1 (11738374_at) / RFU C1QL1 (11718748_at) / Fold change /veh C1QL1 (11718748_at) / RFU TMPRSS4 (11747572_a_at) / Fold change /veh TMPRSS4 (11747572_a_at) / RFU HAMP (11756126_x_at) / Fold change /veh HAMP (11756126_x_at) / RFU RNFT2 (11725882_a_at) / Fold change /veh RNFT2 (11725882_a_at) / RFU NR4A2 (11747474_a_at) / Fold change /veh NR4A2 (11747474_a_at) / RFU ABCC12 (11746883_a_at) / Fold change /veh ABCC12 (11746883_a_at) / RFU TMEM136 (11760407_x_at) / Fold change /veh TMEM136 (11760407_x_at) / RFU CLDN22 /// WWC2 (11732394_at) / Fold change /veh CLDN22 /// WWC2 (11732394_at) / RFU HLA-DPB1 (11760878_x_at) / Fold change /veh HLA-DPB1 (11760878_x_at) / RFU SPINT1 (11716480_a_at) / Fold change /veh SPINT1 (11716480_a_at) / RFU GAP43 (11754022_s_at) / Fold change /veh GAP43 (11754022_s_at) / RFU A4GNT (11735810_at) / Fold change /veh A4GNT (11735810_at) / RFU PRB3 (11715151_x_at) / Fold change /veh PRB3 (11715151_x_at) / RFU TUBB4B (11761932_at) / Fold change /veh TUBB4B (11761932_at) / RFU CAPN14 (11732068_a_at) / Fold change /veh CAPN14 (11732068_a_at) / RFU TMCC2 (11721928_a_at) / Fold change /veh TMCC2 (11721928_a_at) / RFU IRGQ (11745062_a_at) / Fold change /veh IRGQ (11745062_a_at) / RFU FAM174B (11720279_a_at) / Fold change /veh FAM174B (11720279_a_at) / RFU TMPRSS4 (11748680_a_at) / Fold change /veh TMPRSS4 (11748680_a_at) / RFU FAM212B (11763350_a_at) / Fold change /veh FAM212B (11763350_a_at) / RFU PLEKHG5 (11743358_a_at) / Fold change /veh PLEKHG5 (11743358_a_at) / RFU ZSCAN30 (11745921_a_at) / Fold change /veh ZSCAN30 (11745921_a_at) / RFU CMKLR1 (11741424_a_at) / Fold change /veh CMKLR1 (11741424_a_at) / RFU LOC101060620 /// MAPK8IP1 (11723275_at) / Fold change /veh LOC101060620 /// MAPK8IP1 (11723275_at) / RFU SPTSSB (11747773_x_at) / Fold change /veh SPTSSB (11747773_x_at) / RFU PRSS12 (11739890_at) / Fold change /veh PRSS12 (11739890_at) / RFU BIN1 (11741810_x_at) / Fold change /veh BIN1 (11741810_x_at) / RFU WNT11 (11732464_a_at) / Fold change /veh WNT11 (11732464_a_at) / RFU C10orf10 (11716521_a_at) / Fold change /veh C10orf10 (11716521_a_at) / RFU C5orf56 (11738089_at) / Fold change /veh C5orf56 (11738089_at) / RFU CYB561 (11721691_x_at) / Fold change /veh CYB561 (11721691_x_at) / RFU ANKRD19P (11752326_a_at) / Fold change /veh ANKRD19P (11752326_a_at) / RFU OR2T12 /// OR2T33 /// OR2T8 (11738714_s_at) / Fold change /veh OR2T12 /// OR2T33 /// OR2T8 (11738714_s_at) / RFU VCAN (11748164_a_at) / Fold change /veh VCAN (11748164_a_at) / RFU JSRP1 (11732532_at) / Fold change /veh JSRP1 (11732532_at) / RFU KRTAP10-11 (11738290_x_at) / Fold change /veh KRTAP10-11 (11738290_x_at) / RFU MYO3A (11730013_a_at) / Fold change /veh MYO3A (11730013_a_at) / RFU EBF3 (11725865_a_at) / Fold change /veh EBF3 (11725865_a_at) / RFU CAMK2N1 (11719241_x_at) / Fold change /veh CAMK2N1 (11719241_x_at) / RFU C5orf56 (11738088_a_at) / Fold change /veh C5orf56 (11738088_a_at) / RFU OLFML3 (11715873_a_at) / Fold change /veh OLFML3 (11715873_a_at) / RFU LOC100653217 /// NTM (11731650_a_at) / Fold change /veh LOC100653217 /// NTM (11731650_a_at) / RFU MAPK11 (11762145_a_at) / Fold change /veh MAPK11 (11762145_a_at) / RFU FIZ1 (11724087_x_at) / Fold change /veh FIZ1 (11724087_x_at) / RFU OASL (11726364_x_at) / Fold change /veh OASL (11726364_x_at) / RFU SOX15 (11748057_x_at) / Fold change /veh SOX15 (11748057_x_at) / RFU CD79A (11719716_a_at) / Fold change /veh CD79A (11719716_a_at) / RFU HIST1H1D (11736915_at) / Fold change /veh HIST1H1D (11736915_at) / RFU CASKIN2 (11723855_a_at) / Fold change /veh CASKIN2 (11723855_a_at) / RFU LOC730098 (11760151_x_at) / Fold change /veh LOC730098 (11760151_x_at) / RFU OR4N2 (11742367_at) / Fold change /veh OR4N2 (11742367_at) / RFU PRRT2 (11749266_a_at) / Fold change /veh PRRT2 (11749266_a_at) / RFU SNX32 (11753110_a_at) / Fold change /veh SNX32 (11753110_a_at) / RFU CDHR5 (11726645_a_at) / Fold change /veh CDHR5 (11726645_a_at) / RFU RCAN1 (11760418_a_at) / Fold change /veh RCAN1 (11760418_a_at) / RFU FAM167A (11723789_a_at) / Fold change /veh FAM167A (11723789_a_at) / RFU FAM26E (11764081_at) / Fold change /veh FAM26E (11764081_at) / RFU ISYNA1 (11749810_s_at) / Fold change /veh ISYNA1 (11749810_s_at) / RFU ACY1 (11761880_at) / Fold change /veh ACY1 (11761880_at) / RFU 11764098_at / Fold change /veh 11764098_at / RFU SAMD14 (11745864_x_at) / Fold change /veh SAMD14 (11745864_x_at) / RFU NPB (11741838_a_at) / Fold change /veh NPB (11741838_a_at) / RFU TMPRSS6 (11731388_a_at) / Fold change /veh TMPRSS6 (11731388_a_at) / RFU KRTAP10-2 (11738614_at) / Fold change /veh KRTAP10-2 (11738614_at) / RFU ARHGAP8 /// PRR5-ARHGAP8 (11727945_x_at) / Fold change /veh ARHGAP8 /// PRR5-ARHGAP8 (11727945_x_at) / RFU KRTAP5-7 /// NADSYN1 (11734609_at) / Fold change /veh KRTAP5-7 /// NADSYN1 (11734609_at) / RFU RASL12 (11751679_a_at) / Fold change /veh RASL12 (11751679_a_at) / RFU CDKN2B (11736163_a_at) / Fold change /veh CDKN2B (11736163_a_at) / RFU PRF1 (11729649_at) / Fold change /veh PRF1 (11729649_at) / RFU, ZNF638 /// ZNF638-IT1 / Fold change vs veh, ZNF638 /// ZNF638-IT1 / RFU, PANK3 / Fold change vs veh, PANK3 / RFU, SH3YL1 / Fold change vs veh, SH3YL1 / RFU, ZEB2 / Fold change vs veh, ZEB2 / RFU, NRIP1 / Fold change vs veh, NRIP1 / RFU, PTTG1IP / Fold change vs veh, PTTG1IP / RFU, CAPN2 / Fold change vs veh, CAPN2 / RFU, MED14 / Fold change vs veh, MED14 / RFU, SNORA58 / Fold change vs veh, SNORA58 / RFU, C1orf63 / Fold change vs veh, C1orf63 / RFU, LRRFIP1 / Fold change vs veh, LRRFIP1 / RFU, NDUFAF7 / Fold change vs veh, NDUFAF7 / RFU, SLC12A2 / Fold change vs veh, SLC12A2 / RFU, IBTK / Fold change vs veh, IBTK / RFU, ESF1 / Fold change vs veh, ESF1 / Fold change vs veh, TMEM50B / RFU, TAOK1 / Fold change vs veh, TAOK1 / RFU, ACBD3 / Fold change vs veh, ACBD3 / RFU, TMA16 / Fold change vs veh, TMA16 / RFU, RWDD3 / Fold change vs veh, RWDD3 / RFU, BCAT1 / Fold change vs veh, BCAT1 / RFU, EDEM3 / Fold change vs veh, EDEM3 / RFU, TMEM33 / Fold change vs veh, TMEM33 / RFU, WDR75 / Fold change vs veh, WDR75 / RFU, AHCTF1 / Fold change vs veh, AHCTF1 / RFU, TFRC / Fold change vs veh, TFRC / RFU, ZDHHC17 / Fold change vs veh, ZDHHC17 / RFU, NOM1 / Fold change vs veh, NOM1 / RFU, ARL8B / Fold change vs veh, ARL8B / RFU, ZBTB11 / Fold change vs veh, ZBTB11 / RFU, TAMM41 / Fold change vs veh, TAMM41 / RFU, KIAA1704 /// LOC100996395 / Fold change vs veh, KIAA1704 /// LOC100996395 / RFU, ING1 / Fold change vs veh, ING1 / RFU, TRMT61B / Fold change vs veh, TRMT61B / RFU, FUBP3 / Fold change vs veh, FUBP3 / RFU, TP53 / Fold change vs veh, TP53 / RFU, TNKS2 / Fold change vs veh, TNKS2 / RFU, ZFP14 / Fold change vs veh, ZFP14 / RFU, ACTR2 / Fold change vs veh, ACTR2 / RFU, PPP3R1 / Fold change vs veh, PPP3R1 / RFU, PIK3R1 / Fold change vs veh, PIK3R1 / RFU, HNRNPA1 / Fold change vs veh, HNRNPA1 / RFU, RNF170 / Fold change vs veh, RNF170 / RFU, ZNF28 / Fold change vs veh, ZNF28 / RFU, RNGTT / Fold change vs veh, RNGTT / RFU, OGT / Fold change vs veh, OGT / RFU, BRD1 / Fold change vs veh, BRD1 / RFU, MARS / Fold change vs veh, MARS / RFU, ZNF655 / Fold change vs veh, ZNF655 / RFU, FAHD1 / Fold change vs veh, FAHD1 / RFU, BDP1 / Fold change vs veh, BDP1 / RFU, LRRCC1 / Fold change vs veh, LRRCC1 / RFU, ARID1A / Fold change vs veh, ARID1A / RFU, ZNF146 / Fold change vs veh, ZNF146 / RFU, ZNF330 / Fold change vs veh, ZNF330 / RFU, GPN3 / Fold change vs veh, GPN3 / RFU, C9orf123 / Fold change vs veh, C9orf123 / RFU, N4BP2L2 / Fold change vs veh, N4BP2L2 / RFU, ARFIP1 / Fold change vs veh, ARFIP1 / RFU, FAM179B / Fold change vs veh, FAM179B / RFU, BCL10 / Fold change vs veh, BCL10 / RFU, UHRF1BP1L / Fold change vs veh, UHRF1BP1L / RFU, BET1 / Fold change vs veh, BET1 / RFU, CNOT2 / Fold change vs veh, CNOT2 / RFU, ZNF268 / Fold change vs veh, ZNF268 / Fold change vs veh, ZNF507 / RFU, DGCR2 / Fold change vs veh, DGCR2 / RFU, WDSUB1 / Fold change vs veh, WDSUB1 / Fold change vs veh, HSP90B1 /// MIR3652 / RFU, ADSS / Fold change vs veh, ADSS / RFU, GK / Fold change vs veh, GK / RFU, ZNF148 / Fold change vs veh, ZNF148 / RFU, TAF9 / Fold change vs veh, TAF9 / RFU, SLC1A5 / Fold change vs veh, SLC1A5 / RFU, SLMO2 / Fold change vs veh, SLMO2 / RFU, ABCC4 / Fold change vs veh, ABCC4 / RFU, LOC101060439 /// RAP1B / Fold change vs veh, LOC101060439 /// RAP1B / RFU, RFX7 / Fold change vs veh, RFX7 / RFU, GTPBP10 / Fold change vs veh, GTPBP10 / RFU, CNEP1R1 / Fold change vs veh, CNEP1R1 / RFU, BIVM-ERCC5 /// ERCC5 / Fold change vs veh, BIVM-ERCC5 /// ERCC5 / RFU, ILF3 / Fold change vs veh, ILF3 / RFU 11762660_at / Fold change /veh 11762660_at / RFU VCAN (11757783_s_at) / Fold change /veh VCAN (11757783_s_at) / RFU DDX43 (11728927_at) / Fold change /veh DDX43 (11728927_at) / RFU KRT8 (11758188_x_at) / Fold change /veh KRT8 (11758188_x_at) / RFU NKD1 (11759106_at) / Fold change /veh NKD1 (11759106_at) / RFU SRD5A1 (11742802_a_at) / Fold change /veh SRD5A1 (11742802_a_at) / RFU TPSAB1 /// TPSB2 (11721975_s_at) / Fold change /veh TPSAB1 /// TPSB2 (11721975_s_at) / RFU GSTM3 (11746129_a_at) / Fold change /veh GSTM3 (11746129_a_at) / RFU IL23R (11737362_x_at) / Fold change /veh IL23R (11737362_x_at) / RFU TMEM51 (11727254_a_at) / Fold change /veh TMEM51 (11727254_a_at) / RFU PIWIL2 (11732686_x_at) / Fold change /veh PIWIL2 (11732686_x_at) / RFU ORM1 (11744905_x_at) / Fold change /veh ORM1 (11744905_x_at) / RFU CCDC152 (11743942_at) / Fold change /veh CCDC152 (11743942_at) / RFU ECM1 (11717891_a_at) / Fold change /veh ECM1 (11717891_a_at) / RFU IL23R (11748794_a_at) / Fold change /veh IL23R (11748794_a_at) / RFU TNFAIP8L3 (11732012_x_at) / Fold change /veh TNFAIP8L3 (11732012_x_at) / RFU MBOAT4 (11741988_at) / Fold change /veh MBOAT4 (11741988_at) / RFU 11764193_at / Fold change /veh 11764193_at / RFU TMEM53 (11763286_at) / Fold change /veh TMEM53 (11763286_at) / RFU MAGEB2 (11727129_at) / Fold change /veh MAGEB2 (11727129_at) / RFU TMEM200A (11744735_a_at) / Fold change /veh TMEM200A (11744735_a_at) / RFU CCDC152 (11751479_a_at) / Fold change /veh CCDC152 (11751479_a_at) / RFU FAM211A (11726209_a_at) / Fold change /veh FAM211A (11726209_a_at) / RFU RGS16 (11746705_a_at) / Fold change /veh RGS16 (11746705_a_at) / RFU VCAN (11755009_s_at) / Fold change /veh VCAN (11755009_s_at) / RFU RHOB (11743442_s_at) / Fold change /veh RHOB (11743442_s_at) / RFU RGS16 (11720943_a_at) / Fold change /veh RGS16 (11720943_a_at) / RFU RGS16 (11720944_at) / Fold change /veh RGS16 (11720944_at) / RFU, VPS4B / Fold change vs veh, VPS4B / RFU, CREB1 / Fold change vs veh, CREB1 / RFU, DNAJC13 / Fold change vs veh, DNAJC13 / RFU, GNAQ / Fold change vs veh, GNAQ / RFU, CDK5R1 / Fold change vs veh, CDK5R1 / RFU, ZRANB3 / Fold change vs veh, ZRANB3 / RFU, CUL4A / Fold change vs veh, CUL4A / RFU, CCNY / Fold change vs veh, CCNY / RFU, UFL1 / Fold change vs veh, UFL1 / RFU, COG3 / Fold change vs veh, COG3 / RFU, DIAPH2 / Fold change vs veh, DIAPH2 / RFU, SKA2 / Fold change vs veh, SKA2 / RFU, AFF3 / Fold change vs veh, AFF3 / RFU, LMF1 / Fold change vs veh, LMF1 / RFU, IPO11 / Fold change vs veh, IPO11 / RFU, DFFB / Fold change vs veh, DFFB / RFU, FOXP1 / Fold change vs veh, FOXP1 / RFU, CARD8 / Fold change vs veh, CARD8 / RFU, STRN3 / Fold change vs veh, STRN3 / RFU, ADK / Fold change vs veh, ADK / RFU, RASSF2 / Fold change vs veh, RASSF2 / RFU, WIPF1 / Fold change vs veh, WIPF1 / RFU, LARP1B / Fold change vs veh, LARP1B / RFU, RASA1 / Fold change vs veh, RASA1 / RFU, RB1 / Fold change vs veh, RB1 / RFU, PPFIA1 / Fold change vs veh, PPFIA1 / RFU, MAT2A / Fold change vs veh, MAT2A / RFU, CCT5 / Fold change vs veh, CCT5 / RFU, WDR92 / Fold change vs veh, WDR92 / RFU, CUX1 / Fold change vs veh, CUX1 / RFU, TTC7A / Fold change vs veh, TTC7A / RFU, TMEM135 / Fold change vs veh, TMEM135 / RFU, DEPTOR / Fold change vs veh, DEPTOR / RFU, CPM / Fold change vs veh, CPM / RFU, DNAJB6 / Fold change vs veh, DNAJB6 / RFU, CACNA2D3 / Fold change vs veh, CACNA2D3 / RFU, DTX4 / Fold change vs veh, DTX4 / RFU, TFCP2 / Fold change vs veh, TFCP2 / RFU, GMCL1 /// GMCL1P1 / Fold change vs veh, GMCL1 /// GMCL1P1 / RFU, AEBP2 / Fold change vs veh, AEBP2 / RFU, SNHG1 /// SNORD22 /// SNORD25 /// SNORD26 /// SNORD27 /// SNORD28 /// SNORD29 /// SNORD31 / Fold change vs veh, SNHG1 /// SNORD22 /// SNORD25 /// SNORD26 /// SNORD27 /// SNORD28 /// SNORD29 /// SNORD31 / Fold change (Aza/veh), C12orf56 (ProbeSet 11735607_a_at) / Fold change (ACY-1035/veh), C12orf56 (ProbeSet 11735607_a_at) / Fold change (Aza/veh), FGFR1OP (ProbeSet 11751329_s_at) / Fold change (ACY-1035/veh), FGFR1OP (ProbeSet 11751329_s_at) / Fold change (Aza/veh), VPS36 (ProbeSet 11739960_a_at) / Fold change (ACY-1035/veh), VPS36 (ProbeSet 11739960_a_at) / RFU SYPL1 (11715823_x_at) / Fold change /veh SYPL1 (11715823_x_at) / RFU IGFBP7 (11715501_s_at) / Fold change /veh IGFBP7 (11715501_s_at) / RFU REEP3 (11722064_at) / Fold change /veh REEP3 (11722064_at) / RFU IGLL1 (11728026_x_at) / Fold change /veh IGLL1 (11728026_x_at): dose or concentration left out as unconfirmed
# Conditions: MV-4-11 cells, 48 hours
compound,measurement,value
Nc1ccc(-c2cccs2)cc1NC(=O)c1ccc2c(c1)cc(C1CC1)n2CCN1CCOCC1 [ACY-1035],RFU A4GNT (11735810_at),16.59 RFU
